Two compounds from PMC10489651, “Six New Phenolic Glycosides from the Seeds of Moringa oleifera Lam. and Their α-Glucosidase Inhibitory Activity” (Molecules, 2023) can be followed below.

The target of the test is α-glucosidase. In words: colorimetric α-glucosidase inhibition assay (p-nitrophenyl glucopyranoside substrate, […] nm). The class given is biochemical.

Each structure is given as a SMILES string.

The term IC50 denotes the point on the concentration scale where inhibition reaches its midpoint. `C[C@@H]1O[C@@H](Oc2ccc(Cc3cc(CC#N)ccc3O)cc2)[C@H](O)[C@H](O)[C@H]1O` [compound 4, 4-(α-L-rhamnopyranosyl) benzyl-1′-hydroxy-4′-phenylacetonitrile] displayed an IC50 of 382.8 ± 1.42 µM.
Regarding `C[C@@H]1O[C@@H](Oc2ccc(C/C(=N/OS(=O)(=O)O)S[C@@H]3O[C@H](CO)[C@@H](O)[C@H](O)[C@H]3O)cc2)[C@H](O)[C@H](O)[C@H]1O` [compound 16, glucomoringin], half-maximal inhibition (IC50) was put at 301 ± 6.22 µM.
